Source: US8901129B2, “Methods of facilitating neural cell survival using GDNF family ligand (GFL) mimetics or RET signaling pathway activators” (GeneCode AS, priority 2009, dated 2014)

What was measured:
[1] = system: MG87RET murine fibroblasts; assay: Cell viability, CelTiterGlo (FIG. 8); type: cell-based; conditions: concentrations above 2 μM, 48 hours
Method: The test compounds were transferred into in 384-well culture plate using Echo acoustic dispenser (Labcyte Inc.) in 2.5-125 nl volume. Trypsinized MG87RET murine fibroblasts were seeded at 20 000 cells/ml (500 cells/well) in the presence of each compound dissolved in DMSO at the indicated concentration. After brief mixing on a horizontal shaker, the plates were centrifuged and transferred into the incubator. Two days (48 hours) after addition of cells to compounds, the viability of the cells was evaluated using CelTiterGlo reagent (Promega).

[2] = system: GFRα1/RET-expressing cells; assay: Reporter-gene luciferase activity assay, dose-response (FIG. 5); type: cell-based; conditions: 1-50 μM, 24 h
Method: (§1) Generation of stable cell lines. MG87RET murine fibroblast were plated on […] dishes and transfected with 4 μg of G4-Luc, Gal4-Elk (Baloh et al., 2000) and GFRα1 expressing plasmid (“αLUC” cells) or empty vector (“NOα” cells) containing neomycin-resistance gene in ratio 4:1:1 using Lipofectamine 2000 (Invitrogen) for DNA delivery as described by manufacturer. The following day, cells were trypsinized and plated in low density on 10-cm tissue culture dishes. Stable transformants were selected in the presence of 500-750 μg/ml geneticin (Invitrogen). Established cell lines were maintained in DMEM, 10% fetal bovine serum (FBS), 100 μg/ml Normocin (Invivogene), 2 μg/ml of puromycin, 500 μg/ml of geneticin, 15 mM HEPES, pH 7.2. Pathdetect Elk-1 system and human GFRα1-expressing plasmid (“Strat-Luc” cells) or empty vector (control cell line “NOStratis”) cells were selected and maintained in the DMEM, 10% FBS, 100 μg/ml Normocin (Invivogene), 2 μg/ml of puromycin, 500 μg/ml of G418, 2 μg/ml of blasticidin S, 15 mM HEPES, pH 7.2.
(§2) Cells were plated on 96-well plates (or 384-well) in cell density 20 000 (or 5 000 for 384-well format) cells per well in DMEM, 10% FBS, 100 μg/ml Normocin, 2 μg/ml puromycin, 500 μg/ml of G418, 15 mM HEPES, pH 7.2 one day before assay. The following day, the compounds were added to a final concentration of 1-50 μM. Structures of the compounds are shown in the description of FIG. 5, above. Cells were allowed to produce luciferase for 24 h, then lysed in 20 μl of 1×Cell culture lysis reagent (Promega) and freeze-thawed once to ensure complete lysis. Then 5 μl of the lysate was mixed (on ice) with 20 μl of luciferase assay substrate (Promega) in a well of black Isoplate (PerkinElmer). Luminescence was counted on MicroBeta 2 counter (PerkinElmer) twice. Data are presented as fold induction, where the corresponding concentration of DMSO was used as a reference.

[3] = system: RET-expressing reporter cell line (RET alone); assay: as above; type: cell-based; conditions: cells expressing RET alone; 1-50 μM, 24 h
Method: as §1, §2

[4] = system: GFRα3/RET-expressing reporter cell line; assay: as above; type: cell-based, human; conditions: GFRα3/RET cells; 1-50 μM, 24 h
Text: Full-length flag-tagged rat Gfrα1 cDNA (Leppänen et al., 2004) subcloned into in pcDNA3 (Invitrogen). Full-length human GFRα1 cDNA (Sidorova et al., unpublished) subcloned in pcDNA6 (Invitrogen). Full-length human GFRα3 cDNA (Wang et al., 2006). Full-length human RET (long isoform) (Runeberg-Roos et al., 2007) in pCR3.1 (Invitrogen). The MAPK activation detection system (Baloh et al., 2000) and PathDetect Elk-1 (Stratagene) both of which include two plasmids. First one constitutively expresses MAPK pathway specific fusion transactivator, that consists of activation domain of Elk-1 and DNA-binding domain of the yeast GAL4 protein (Gal4-Elk1). The other plasmid, Gal4-Luc, carries luciferase gene under the control of a synthetic promoter containing the yeast GAL4 binding sequences.
as §2

[5] = molecular target: T1, GFRα1/RET (Homo sapiens, UniProt P07949+P56159); assay: RET phosphorylation by BT compounds, IP and Western blotting (FIG. 6A); type: cell-based; conditions: 100 μM, 15 min; MG87 RET fibroblasts transfected with GFRα1
T1 construct: Full-length human GFRα1 cDNA (Sidorova et al., unpublished) subcloned in pcDNA6; expressed in transfected cells; host or cells: MG87RET murine fibroblasts transiently transfected with GFRα1
Method: (§3) MG87RET cells were plated on 35 mm tissue culture dishes the day before the experiment. Cells were transfected with GFRα1, GFRα3 or with an vector encoding for GFP. On the day of the experiment cells were starved for 4 hours in serum-free DMEM and stimulated with the investigated compounds (structures shown in the description of FIG. 6, above) at 100 μM concentration or with 100 ng/ml of GDNF or ARTN (positive control) for 15 min. Then cells were washed once with ice-cold PBS containing 1 mM Na3VO4 and lysed on ice in 1 ml per well of RIPA-modified buffer (50 mM Tris-HCl, pH 7.4, 150 mM NaCl, 1 mM EDTA, 1% NP-40, 1% TX-100, 10% glycerol, EDTA-free protease inhibitor cocktail (Roche), 1 mM Na3VO4, 2.5 mg/ml of sodium deoxycholate, 1 mM PMSF. Ret was immunoprecipitated by anti-RET C-20 antibodies (Santa-Cruz Biotechnology, Inc.). Precipitated proteins were resolved on 7.5% SDS-PAGE and then transferred onto a nitrocellulose membrane. Membrane was blocked for 15 min at room temperature by 10% nonfat dry milk in TBS-T and probed with anti-phosphotyrosine antibodies (clone 4G10, Upstate Biotechnology) diluted 1:1000 in TBS-T containing 3% nonfat dry milk for 2 hours at room temperature. The membranes were washed 3 times for 5 min in TBS-T and incubated in the 1:3000 solution of secondary anti-mouse antibodies conjugated with HRP (DAKO) diluted in TBS-T containing 3% nonfat dry milk for 45 min at room temperature. Membranes were washed with TBS-T for 5×10 min. Stained bands were visualized with ECL reagent (Pierce) using LAS3000 imaging program. To confirm equal loading of the proteins, membranes were probed with anti-RET C-20 antibodies (1:500, Santa-Cruz Biotechnology, inc.) after stripping. We used secondary anti-goat antibodies conjugated with HRP (1:1500, DAKO) to detect C-20.

[6] = molecular target: T2, GFRα3/RET (Homo sapiens, UniProt O60609+P07949); assay: RET phosphorylation by BT compounds, IP and Western blotting (FIG. 6B); type: cell-based; conditions: 100 μM, 15 min; MG87 RET fibroblasts transfected with GFRα3
T2 construct: Full-length human GFRα3 cDNA (Wang et al., 2006); expressed in transfected cells; host or cells: MG87RET murine fibroblasts transiently transfected with GFRα3
Method: as §3

T2 sequence (O60609 32-374 limits assumed): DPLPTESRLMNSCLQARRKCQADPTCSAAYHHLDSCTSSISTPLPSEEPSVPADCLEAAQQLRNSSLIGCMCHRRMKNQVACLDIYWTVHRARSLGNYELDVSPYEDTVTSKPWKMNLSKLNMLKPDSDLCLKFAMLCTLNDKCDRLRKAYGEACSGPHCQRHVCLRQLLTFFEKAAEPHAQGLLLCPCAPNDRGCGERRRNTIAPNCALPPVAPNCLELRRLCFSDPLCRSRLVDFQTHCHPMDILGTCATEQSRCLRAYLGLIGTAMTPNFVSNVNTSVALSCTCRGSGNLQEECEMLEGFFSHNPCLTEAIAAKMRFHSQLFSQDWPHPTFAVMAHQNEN
T2 sequence (P07949 29-1114): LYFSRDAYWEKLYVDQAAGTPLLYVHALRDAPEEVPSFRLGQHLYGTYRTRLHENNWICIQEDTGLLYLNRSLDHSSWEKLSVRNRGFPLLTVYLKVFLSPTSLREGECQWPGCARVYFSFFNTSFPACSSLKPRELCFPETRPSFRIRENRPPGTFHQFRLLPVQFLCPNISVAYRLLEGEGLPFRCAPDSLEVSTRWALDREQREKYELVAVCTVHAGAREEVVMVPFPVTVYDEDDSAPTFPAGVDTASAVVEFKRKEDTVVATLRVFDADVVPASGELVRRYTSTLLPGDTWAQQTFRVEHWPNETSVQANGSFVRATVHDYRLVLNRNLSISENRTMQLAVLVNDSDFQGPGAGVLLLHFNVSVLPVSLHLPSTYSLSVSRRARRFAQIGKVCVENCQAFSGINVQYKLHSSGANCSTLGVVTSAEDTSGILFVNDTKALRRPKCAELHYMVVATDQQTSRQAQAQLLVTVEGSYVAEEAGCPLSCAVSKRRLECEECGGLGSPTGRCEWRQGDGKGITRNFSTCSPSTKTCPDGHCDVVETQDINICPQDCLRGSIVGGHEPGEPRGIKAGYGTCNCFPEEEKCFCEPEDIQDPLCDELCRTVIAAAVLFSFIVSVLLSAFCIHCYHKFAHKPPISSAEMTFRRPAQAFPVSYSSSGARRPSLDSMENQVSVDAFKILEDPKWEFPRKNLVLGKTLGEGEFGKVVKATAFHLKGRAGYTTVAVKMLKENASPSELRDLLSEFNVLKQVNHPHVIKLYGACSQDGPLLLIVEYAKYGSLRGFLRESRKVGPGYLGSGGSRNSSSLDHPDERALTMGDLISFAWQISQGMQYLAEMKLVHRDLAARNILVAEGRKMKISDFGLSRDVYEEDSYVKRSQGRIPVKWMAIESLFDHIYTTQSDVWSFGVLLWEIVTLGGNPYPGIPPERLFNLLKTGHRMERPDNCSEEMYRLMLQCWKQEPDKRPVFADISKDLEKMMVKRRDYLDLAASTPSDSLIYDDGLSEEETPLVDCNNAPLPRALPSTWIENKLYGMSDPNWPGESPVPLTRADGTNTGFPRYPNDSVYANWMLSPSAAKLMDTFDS
T1 sequence (P56159 25-429 limits assumed, species assumed): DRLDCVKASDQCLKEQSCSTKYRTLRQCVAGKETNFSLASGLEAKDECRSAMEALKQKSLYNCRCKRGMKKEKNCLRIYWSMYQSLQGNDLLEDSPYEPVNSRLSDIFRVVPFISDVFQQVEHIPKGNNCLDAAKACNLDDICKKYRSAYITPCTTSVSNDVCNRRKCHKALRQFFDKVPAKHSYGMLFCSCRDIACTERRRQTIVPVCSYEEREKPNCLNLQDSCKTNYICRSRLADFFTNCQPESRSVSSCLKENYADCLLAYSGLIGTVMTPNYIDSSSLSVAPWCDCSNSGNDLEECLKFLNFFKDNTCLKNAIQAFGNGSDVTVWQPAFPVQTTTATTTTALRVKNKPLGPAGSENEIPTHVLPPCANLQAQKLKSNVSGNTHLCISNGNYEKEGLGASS
T1 sequence (P07949 29-1114, species assumed): as the sequence (P07949 29-1114) above

RET phosphorylation via GFRα1 [5]	RET phosphorylation via GFRα3 [6]	Compound	toxicity (cell viability) [1]	induction of luciferase expression [2]	induction of luciferase expression [3]	induction of luciferase expression [4]
–	–	CCN(CC)CCCC(C)Nc1cc(/C=C/c2ccccc2Cl)nc2cc(Cl)ccc12 (stereo not drawn) [BT10]	significant toxicity	–	–	–
likely the weaker GFRα1/RET agonists	likely the weaker GFRα3/RET agonists	COc1ccc(S(=O)(=O)N2CCC(Cc3ccccc3)CC2)cc1N1CCN(C(=O)c2cc(F)ccc2C(F)(F)F)CC1 [BT17]	–	in a dose-dependent manner induce luciferase expression	No significant effect	in a dose-dependent manner induce luciferase expression
